# Assay results as given in US20100272648A1, “Methods of Identifying Improved NMDA Receptor Antagonists” (priority 2008, published 2010).
# Where two headings read alike, the source gives them in different places.
# Key:
# NR1/NR2A receptors = NR1/NR2A receptors (Rattus norvegicus, UniProt P35439+Q00959); assay: In vitro potency boost pH 6.9 vs 7.6 (NR1/NR2A, oocytes) versus infarct volume (FIG. 4); conditions: potency boost pH 6.9 vs 7.6 versus infarct volume
# Experimental: Expression of NMDA receptors in Xenopus oocytes. cRNA was synthesized from linearized template cDNA for NMDA receptor subunits (NR1-1a, NR2B, NR2A) according to manufacturer specifications (Ambion:). cDNAs used corresponded to GenBank numbers U08261 and U11418 (NR1-1a), AF001423 and CD13211 (NR2A), U11419 (NR2B). Briefly, cDNA was linearized with an appropriate restriction enzyme downstream of the coding region, purified, and incubated with RNA polymerase and appropriate concentrations of ribonucleotides. In vitro transcribed cRNA was purified using standard methods. Quality of synthesized cRNA was assessed by gel electrophoresis, and quantity was estimated by spectroscopy and gel electrophoresis. Stage V and VI oocytes were surgically removed from the ovaries of large, well-fed and healthy Xenopus laevis anesthetized with 3-amino-benzoic acid ethyl ester (1 gm/l). Clusters of oocytes were incubated with 292 Uml Worthington (Freehold, N.J.) type IV collagenase or 1.3 mg/ml collagenase (Life Technologies, Gaithersburg, Md.; 17018-029) for 2 hr in Ca2+-free solution comprised of (in mM) 115 NaCl, 2.5 KCl, and 10 HEPES, pH 7.5, with slow agitation to remove the follicular cell layer. […]
# [1] = target: rat NMDA-NR2B containing receptors (Rattus norvegicus, UniProt P35439+Q00960); assay: pH potency boost, Xenopus oocyte assay, rat receptor cDNA; type: cell-based; conditions: pH 6.9 vs 7.6, rat receptors
# Sequence of rat NMDA-NR2B containing receptors (Q00960 27-1482, other chains not shown): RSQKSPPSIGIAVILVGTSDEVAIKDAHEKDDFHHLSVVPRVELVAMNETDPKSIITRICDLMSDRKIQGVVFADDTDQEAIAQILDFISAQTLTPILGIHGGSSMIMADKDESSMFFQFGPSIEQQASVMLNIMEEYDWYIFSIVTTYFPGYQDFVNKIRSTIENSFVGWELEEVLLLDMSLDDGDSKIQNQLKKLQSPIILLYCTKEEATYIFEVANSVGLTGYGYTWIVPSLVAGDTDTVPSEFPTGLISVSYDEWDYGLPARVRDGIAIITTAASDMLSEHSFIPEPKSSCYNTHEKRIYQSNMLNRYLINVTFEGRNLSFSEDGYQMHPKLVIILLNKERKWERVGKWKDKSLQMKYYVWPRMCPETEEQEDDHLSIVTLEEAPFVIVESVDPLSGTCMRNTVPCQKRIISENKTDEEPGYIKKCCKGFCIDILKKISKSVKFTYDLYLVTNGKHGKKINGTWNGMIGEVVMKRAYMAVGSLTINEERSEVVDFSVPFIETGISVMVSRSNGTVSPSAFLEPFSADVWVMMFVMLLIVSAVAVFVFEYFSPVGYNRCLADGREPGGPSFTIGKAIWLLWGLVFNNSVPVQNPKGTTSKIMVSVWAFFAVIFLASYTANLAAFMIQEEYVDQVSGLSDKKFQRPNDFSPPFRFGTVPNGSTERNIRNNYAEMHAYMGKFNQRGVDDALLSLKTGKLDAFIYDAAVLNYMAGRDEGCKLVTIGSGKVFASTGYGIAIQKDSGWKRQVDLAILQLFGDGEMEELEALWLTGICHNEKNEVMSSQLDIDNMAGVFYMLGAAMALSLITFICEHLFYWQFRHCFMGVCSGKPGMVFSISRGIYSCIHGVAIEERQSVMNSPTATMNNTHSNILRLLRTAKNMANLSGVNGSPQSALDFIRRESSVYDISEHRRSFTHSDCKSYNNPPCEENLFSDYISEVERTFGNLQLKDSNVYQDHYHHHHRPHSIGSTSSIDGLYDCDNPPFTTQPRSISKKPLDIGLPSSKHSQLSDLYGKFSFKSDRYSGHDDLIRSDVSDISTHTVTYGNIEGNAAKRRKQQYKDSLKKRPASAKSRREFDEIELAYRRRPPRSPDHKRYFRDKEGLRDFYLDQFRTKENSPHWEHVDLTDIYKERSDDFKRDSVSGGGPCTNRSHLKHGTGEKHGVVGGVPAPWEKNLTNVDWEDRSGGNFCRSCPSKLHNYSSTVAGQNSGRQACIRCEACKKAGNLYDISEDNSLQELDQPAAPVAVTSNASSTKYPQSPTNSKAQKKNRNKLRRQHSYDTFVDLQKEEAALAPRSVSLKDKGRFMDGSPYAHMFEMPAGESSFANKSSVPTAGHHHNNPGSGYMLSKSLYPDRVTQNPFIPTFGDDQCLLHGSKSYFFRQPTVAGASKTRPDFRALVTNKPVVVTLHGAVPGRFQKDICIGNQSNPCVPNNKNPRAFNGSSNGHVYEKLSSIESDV
# From the text: (§1) In vitro transcribed cRNA was purified using standard methods.
# (§2) Preparation of pH-dependent NMDA receptor antagonists for testing.
# (§3) Voltage-clamp recordings from Xenopus oocytes.
# (§4) Determination of a pH dependent potency boost in antagonism, defined as the […].
# [2] = target: human NMDA-NR2B containing receptors (Homo sapiens, UniProt Q05586+Q13224); assay: pH potency boost, Xenopus oocyte assay, human receptor cDNA; type: cell-based; conditions: for HUMAN Boost: pH potency boost, pH 6.9 vs 7.6, human receptors; for Absolute Boost Difference: rat versus human pH potency boost
# Sequence of human NMDA-NR2B containing receptors (Q13224 27-1484, other chains not shown): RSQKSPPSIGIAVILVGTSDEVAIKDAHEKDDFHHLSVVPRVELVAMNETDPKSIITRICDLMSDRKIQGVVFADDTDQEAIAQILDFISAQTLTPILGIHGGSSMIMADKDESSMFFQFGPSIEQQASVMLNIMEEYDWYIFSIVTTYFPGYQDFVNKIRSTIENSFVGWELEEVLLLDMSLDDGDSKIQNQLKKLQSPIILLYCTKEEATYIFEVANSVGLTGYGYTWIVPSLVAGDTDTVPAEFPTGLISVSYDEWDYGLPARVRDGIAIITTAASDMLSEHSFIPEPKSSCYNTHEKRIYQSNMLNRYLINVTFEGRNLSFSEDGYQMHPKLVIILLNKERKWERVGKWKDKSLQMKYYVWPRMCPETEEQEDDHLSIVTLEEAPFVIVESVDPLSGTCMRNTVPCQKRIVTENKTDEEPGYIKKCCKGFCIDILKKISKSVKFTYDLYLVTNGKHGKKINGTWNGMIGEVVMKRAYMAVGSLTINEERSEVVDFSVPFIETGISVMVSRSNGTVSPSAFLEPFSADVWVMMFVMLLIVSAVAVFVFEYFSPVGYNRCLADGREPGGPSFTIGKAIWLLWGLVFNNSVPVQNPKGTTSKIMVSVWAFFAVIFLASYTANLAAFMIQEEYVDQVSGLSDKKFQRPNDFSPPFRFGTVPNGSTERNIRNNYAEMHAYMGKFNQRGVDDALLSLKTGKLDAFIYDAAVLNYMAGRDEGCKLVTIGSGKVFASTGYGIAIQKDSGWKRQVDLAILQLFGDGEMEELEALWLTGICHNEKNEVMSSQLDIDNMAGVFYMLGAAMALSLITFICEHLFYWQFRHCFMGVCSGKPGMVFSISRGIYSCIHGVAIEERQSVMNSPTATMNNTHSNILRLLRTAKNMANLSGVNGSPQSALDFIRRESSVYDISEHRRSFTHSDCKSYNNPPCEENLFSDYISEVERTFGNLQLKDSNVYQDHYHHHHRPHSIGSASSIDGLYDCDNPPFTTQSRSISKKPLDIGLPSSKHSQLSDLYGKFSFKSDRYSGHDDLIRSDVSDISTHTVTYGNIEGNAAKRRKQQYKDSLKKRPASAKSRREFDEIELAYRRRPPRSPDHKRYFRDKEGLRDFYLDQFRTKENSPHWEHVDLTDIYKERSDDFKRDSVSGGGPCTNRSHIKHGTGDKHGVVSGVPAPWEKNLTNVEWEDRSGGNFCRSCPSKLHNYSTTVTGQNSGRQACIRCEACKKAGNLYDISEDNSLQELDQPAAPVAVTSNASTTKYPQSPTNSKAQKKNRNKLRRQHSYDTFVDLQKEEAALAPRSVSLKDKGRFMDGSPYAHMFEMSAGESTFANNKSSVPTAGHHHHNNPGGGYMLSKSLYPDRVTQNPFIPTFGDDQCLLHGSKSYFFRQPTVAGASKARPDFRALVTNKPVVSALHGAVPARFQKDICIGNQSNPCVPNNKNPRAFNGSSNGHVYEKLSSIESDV
# From the text: as §1, §2, §3, §4
# infarct volume [3] = conditions: cats and rats, highest dose tested; cited from earlier work
# infarct volume [4] = conditions: cats, highest dose tested; cited from earlier work
# infarct volume [5] = conditions: rats, after middle cerebral artery occlusion; cited from earlier work
# dyskinesias = conditions: add-on therapy with L-DOPA, patients; cited from earlier work
# [6] = Locomotor activity of rats (light beam breaks); type: in vivo, Sprague-Dawley rats; conditions: IP, varying doses (3-300 mg/kg, compound-specific), monitored 2 hours after injection
# Experimental: Locomotor activity was monitored after injection for 2 hours.
# Sequence of NR1/NR2A receptors (Q00959 23-1464, other chains not shown): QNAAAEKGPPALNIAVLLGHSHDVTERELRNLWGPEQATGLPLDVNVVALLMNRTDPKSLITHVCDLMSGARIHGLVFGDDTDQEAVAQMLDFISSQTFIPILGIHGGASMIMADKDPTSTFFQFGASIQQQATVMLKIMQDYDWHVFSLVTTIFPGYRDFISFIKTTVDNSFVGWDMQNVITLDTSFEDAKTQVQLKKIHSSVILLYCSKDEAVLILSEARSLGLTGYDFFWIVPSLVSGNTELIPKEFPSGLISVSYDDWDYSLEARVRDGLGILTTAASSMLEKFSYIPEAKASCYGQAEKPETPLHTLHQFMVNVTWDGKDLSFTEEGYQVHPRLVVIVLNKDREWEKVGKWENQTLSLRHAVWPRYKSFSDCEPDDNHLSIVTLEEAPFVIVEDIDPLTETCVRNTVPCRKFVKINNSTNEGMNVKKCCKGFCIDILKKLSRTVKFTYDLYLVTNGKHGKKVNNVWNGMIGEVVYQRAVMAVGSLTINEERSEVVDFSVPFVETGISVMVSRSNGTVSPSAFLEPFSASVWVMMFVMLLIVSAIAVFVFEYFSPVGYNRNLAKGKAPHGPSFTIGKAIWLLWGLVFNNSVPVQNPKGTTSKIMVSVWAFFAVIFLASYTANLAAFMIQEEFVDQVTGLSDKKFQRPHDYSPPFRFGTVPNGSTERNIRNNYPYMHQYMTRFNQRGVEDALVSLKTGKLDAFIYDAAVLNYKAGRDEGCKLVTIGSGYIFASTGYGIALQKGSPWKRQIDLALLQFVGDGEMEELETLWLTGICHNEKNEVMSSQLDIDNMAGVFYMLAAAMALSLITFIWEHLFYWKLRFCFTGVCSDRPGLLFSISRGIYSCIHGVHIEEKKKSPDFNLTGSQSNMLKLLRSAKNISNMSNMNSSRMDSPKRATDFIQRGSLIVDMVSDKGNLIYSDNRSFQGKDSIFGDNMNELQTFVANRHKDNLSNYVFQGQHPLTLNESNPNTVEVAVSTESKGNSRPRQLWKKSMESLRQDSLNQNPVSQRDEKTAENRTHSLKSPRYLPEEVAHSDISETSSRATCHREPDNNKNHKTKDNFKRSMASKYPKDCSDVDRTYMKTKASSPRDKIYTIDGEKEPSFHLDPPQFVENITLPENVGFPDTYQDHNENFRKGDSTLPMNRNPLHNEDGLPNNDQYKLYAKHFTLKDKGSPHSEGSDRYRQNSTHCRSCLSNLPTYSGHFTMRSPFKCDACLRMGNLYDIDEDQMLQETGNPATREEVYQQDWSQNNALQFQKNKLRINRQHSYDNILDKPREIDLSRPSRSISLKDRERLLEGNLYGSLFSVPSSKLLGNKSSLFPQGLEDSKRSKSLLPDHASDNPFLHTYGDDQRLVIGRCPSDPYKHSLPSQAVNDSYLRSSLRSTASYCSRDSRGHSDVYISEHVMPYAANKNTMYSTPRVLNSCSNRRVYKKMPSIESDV
Compound,RAT Boost [1],HUMAN Boost [2],Absolute Boost Difference [2],further results
CNC1(c2ccccc2Cl)CCCCC1=O (stereo not drawn) [ketamine],,,,"mean within shaded area (criteria for superior drug performance), NR1/NR2A (NR1/NR2A receptors): fall within the shaded area"
CCCCN(CCc1ccc(Cl)c(Cl)c1)CC(O)COc1ccc(NS(C)(=O)=O)cc1 (stereo not drawn) [Compound 93-88],6.3,22.1,15.8,
C/C=C/CN(CCc1ccc(Cl)c(Cl)c1)CC(O)COc1ccc(NS(C)(=O)=O)cc1 (stereo not drawn) [Compound 93-128],4.1,18.0,13.9,
OC(CN1CCC(Cc2ccc(F)cc2)CC1)c1ccc(Cl)cc1 (stereo not drawn) [SL 82.0715],,,,decrease in infarct volume (infarct volume [3]): 36-48%
CS(=O)(=O)Nc1ccc(OCC(O)CN(CCc2ccc(Cl)c(Cl)c2)Cc2ccccc2)cc1 (stereo not drawn) [Compound 93-30],7.4,21.0,13.6,
CC(C(O)c1ccc(O)cc1)N1CCC(Cc2ccccc2)CC1 (stereo not drawn) [Ifenprodil],,,,decrease in infarct volume (infarct volume [4]): 42%; decrease in infarct volume (infarct volume [5]): 22%
NC12CC3CC(CC(C3)C1)C2 [Amantadine],,,,reduction of severity of dyskinesias (dyskinesias): 60%
CS(=O)(=O)Nc1ccc(OCC(O)CN2CCN(c3ccc(F)c(F)c3)CC2)cc1 (stereo not drawn) [Compound 93-108],3.4,17.7,14.3,
CS(=O)(=O)Nc1ccc(OCC2CN(CCc3cc(Cl)c(Cl)s3)C(c3c(F)c(F)c(F)c(F)c3F)O2)cc1 (stereo not drawn) [Compound 93-176],34.5,29.9,4.6,
(+)MK801,,,,effects on locomotor activity [6]: stereotypical biphasic effects
